Laboratory results: patent US20050070510A1, “Substituted tetracycline compounds as synergistic antifungal agents” (Paratek Pharmaceuticals, Inc., priority 2001, published 2005)

tested on: COS-1 cells; assay: In vitro mammalian cytotoxicity assay (Resazurin)

Row | SMILES | In Vitro Cytotoxicity
1 | Cc1csc(-c2ccc(O)c3c2C[C@@]2(N)C[C@@]4(N)[C@H](N(C)C)C(O)=C(C(N)=O)C(=O)[C@@]4(C#N)C(O)=C2C3=O)c1 [GN] | ** (toxicities less than 25 μg/mL are represented by **)
2 | CN(C)[C@@H]1C(O)=C(C(N)=O)C(=O)[C@@]2(C#N)C(O)=C3C(=O)c4c(O)ccc(-c5ccco5)c4C[C@@]3(N)C[C@@]12N [GO] | ** (toxicities less than 25 μg/mL are represented by **)
3 | CC(=O)Oc1cccc(-c2cc(N(C)C)c3c(c2O)C(=O)C2=C(O)[C@]4(C#N)C(=O)C(C(N)=O)=C(O)[C@@H](N(C)C)[C@]4(N)C[C@]2(N)C3)c1 [GP] | * (toxicities greater than >25 μg/ml are represented by *)
4 | CN(C)[C@@H]1C(O)=C(C(N)=O)C(=O)[C@@]2(C#N)C(O)=C3C(=O)c4c(O)ccc(C#Cc5cccc(C#N)c5)c4C[C@@]3(N)C[C@@]12N [GQ] | * (toxicities greater than >25 μg/ml are represented by *)
5 | CC(=O)c1ccc(O)c2c1C[C@@]1(N)C[C@@]3(N)[C@H](N(C)C)C(O)=C(C(N)=O)C(=O)[C@@]3(C#N)C(O)=C1C2=O [GR] | * (toxicities greater than >25 μg/ml are represented by *)
6 | CN(C)[C@@H]1C(O)=C(C(N)=O)C(=O)[C@@]2(C#N)C(O)=C3C(=O)c4c(O)ccc(C#Cc5ccccc5F)c4C[C@@]3(N)C[C@@]12N [GS] | ** (toxicities less than 25 μg/mL are represented by **)
7 | CC(=O)Nc1cccc(-c2ccc(O)c3c2C[C@@]2(N)C[C@@]4(N)[C@H](N(C)C)C(O)=C(C(N)=O)C(=O)[C@@]4(C#N)C(O)=C2C3=O)c1 [GT] | * (toxicities greater than >25 μg/ml are represented by *)
8 | COc1cccc(C#Cc2ccc(O)c3c2C[C@@]2(N)C[C@@]4(N)[C@H](N(C)C)C(O)=C(C(N)=O)C(=O)[C@@]4(C#N)C(O)=C2C3=O)c1 [GU] | ** (toxicities less than 25 μg/mL are represented by **)
9 | CN(C)[C@@H]1C(O)=C(C(N)=O)C(=O)[C@@]2(C#N)C(O)=C3C(=O)c4c(O)ccc(/C=C/c5ccc(Cl)cc5)c4C[C@@]3(N)C[C@@]12N [GV] | * (toxicities greater than >25 μg/ml are represented by *)
10 | CCC(C)C#Cc1ccc(O)c2c1C[C@@]1(N)C[C@@]3(N)[C@H](N(C)C)C(O)=C(C(N)=O)C(=O)[C@@]3(C#N)C(O)=C1C2=O (stereo partly drawn) [GW] | ** (toxicities less than 25 μg/mL are represented by **)
11 | CCC(CC)CCc1ccc(O)c2c1C[C@@]1(N)C[C@@]3(N)[C@H](N(C)C)C(O)=C(C(N)=O)C(=O)[C@@]3(C#N)C(O)=C1C2=O [GX] | ** (toxicities less than 25 μg/mL are represented by **)
12 | CN(C)CC(=O)Nc1ccc(C#Cc2ccc(O)c3c2C[C@@]2(N)C[C@@]4(N)[C@H](N(C)C)C(O)=C(C(N)=O)C(=O)[C@@]4(C#N)C(O)=C2C3=O)cc1 [GY] | * (toxicities greater than >25 μg/ml are represented by *)
13 | CN(C)[C@@H]1C(O)=C(C(N)=O)C(=O)[C@@]2(C#N)C(O)=C3C(=O)c4c(O)ccc(C#CCc5ccccc5)c4C[C@@]3(N)C[C@@]12N [GZ] | ** (toxicities less than 25 μg/mL are represented by **)
14 | Cc1ccc(/C=C/c2ccc(O)c3c2C[C@@]2(N)C[C@@]4(N)[C@H](N(C)C)C(O)=C(C(N)=O)C(=O)[C@@]4(C#N)C(O)=C2C3=O)cc1 [HA] | ** (toxicities less than 25 μg/mL are represented by **)
15 | Cc1cc(C)cc(-c2cc(N(C)C)c3c(c2O)C(=O)C2=C(O)[C@]4(C#N)C(=O)C(C(N)=O)=C(O)[C@@H](N(C)C)[C@]4(N)C[C@]2(N)C3)c1 [HD] | ** (toxicities less than 25 μg/mL are represented by **)
16 | Cc1ncsc1/C=C/c1ccc(O)c2c1C[C@@]1(N)C[C@@]3(N)[C@H](N(C)C)C(O)=C(C(N)=O)C(=O)[C@@]3(C#N)C(O)=C1C2=O [HE] | ** (toxicities less than 25 μg/mL are represented by **)
17 | CN(C)CCCc1ccc(O)c2c1C[C@@]1(N)C[C@@]3(N)[C@H](N(C)C)C(O)=C(C(=O)NC(C)(C)C)C(=O)[C@@]3(C#N)C(O)=C1C2=O [HH] | * (toxicities greater than >25 μg/ml are represented by *)
18 | COCC#Cc1ccc(O)c2c1C[C@@]1(N)C[C@@]3(N)[C@H](N(C)C)C(O)=C(C(N)=O)C(=O)[C@@]3(C#N)C(O)=C1C2=O [HI] | * (toxicities greater than >25 μg/ml are represented by *)
19 | CN(C)[C@@H]1C(O)=C(C(N)=O)C(=O)[C@@]2(C#N)C(O)=C3C(=O)c4c(O)ccc(/C=C/c5ccc(C(F)(F)F)cc5)c4C[C@@]3(N)C[C@@]12N [HK] | ** (toxicities less than 25 μg/mL are represented by **)
20 | CN(C)[C@@H]1C(O)=C(C(N)=O)C(=O)[C@@]2(C#N)C(O)=C3C(=O)c4c(O)ccc(-c5cccc(CN6CCCC6)c5)c4C[C@@]3(N)C[C@@]12N [HL] | * (toxicities greater than >25 μg/ml are represented by *)
21 | CN(C)[C@@H]1C(O)=C(C(N)=O)C(=O)[C@@]2(C#N)C(O)=C3C(=O)c4c(O)ccc(-c5ccc(CN6CCCC6)cc5)c4C[C@@]3(N)C[C@@]12N [HM] | * (toxicities greater than >25 μg/ml are represented by *)
22 | CN(C)[C@@H]1C(O)=C(C(N)=O)C(=O)[C@@]2(C#N)C(O)=C3C(=O)c4c(O)ccc(-c5cccc(CNCc6ccccc6)c5)c4C[C@@]3(N)C[C@@]12N [HN] | ** (toxicities less than 25 μg/mL are represented by **)
23 | CN(C)[C@@H]1C(O)=C(C(N)=O)C(=O)[C@@]2(C#N)C(O)=C3C(=O)c4c(O)ccc(C#Cc5ccc(NS(C)(=O)=O)cc5)c4C[C@@]3(N)C[C@@]12N [HO] | ** (toxicities less than 25 μg/mL are represented by **)
24 | CN(C)[C@@H]1C(O)=C(C(N)=O)C(=O)[C@@]2(C#N)C(O)=C3C(=O)c4c(O)ccc(-c5ccc(CNCc6ccccc6)cc5)c4C[C@@]3(N)C[C@@]12N [HP] | ** (toxicities less than 25 μg/mL are represented by **)
25 | CN(C)Cc1cccc(-c2ccc(O)c3c2C[C@@]2(N)C[C@@]4(N)[C@H](N(C)C)C(O)=C(C(N)=O)C(=O)[C@@]4(C#N)C(O)=C2C3=O)c1 [HQ] | * (toxicities greater than >25 μg/ml are represented by *)
26 | CN(C)Cc1ccc(-c2ccc(O)c3c2C[C@@]2(N)C[C@@]4(N)[C@H](N(C)C)C(O)=C(C(N)=O)C(=O)[C@@]4(C#N)C(O)=C2C3=O)cc1 [HR] | * (toxicities greater than >25 μg/ml are represented by *)
27 | CN(C)[C@@H]1C(O)=C(C(N)=O)C(=O)[C@@]2(C#N)C(O)=C3C(=O)c4c(O)ccc(-c5cccc(CN6CCOCC6)c5)c4C[C@@]3(N)C[C@@]12N [HS] | * (toxicities greater than >25 μg/ml are represented by *)
28 | CN(C)[C@@H]1C(O)=C(C(N)=O)C(=O)[C@@]2(C#N)C(O)=C3C(=O)c4c(O)ccc(-c5ccc(CN6CCOCC6)cc5)c4C[C@@]3(N)C[C@@]12N [HT] | * (toxicities greater than >25 μg/ml are represented by *)
29 | COc1ccc(CN2CCOCC2)cc1-c1ccc(O)c2c1C[C@@]1(N)C[C@@]3(N)[C@H](N(C)C)C(O)=C(C(N)=O)C(=O)[C@@]3(C#N)C(O)=C1C2=O [HU] | * (toxicities greater than >25 μg/ml are represented by *)
30 | COc1cccc(C/C=C\c2ccc(O)c3c2C[C@@]2(N)C[C@@]4(N)[C@H](N(C)C)C(O)=C(C(N)=O)C(=O)[C@@]4(C#N)C(O)=C2C3=O)c1OC [HV] | ** (toxicities less than 25 μg/mL are represented by **)
